Patent US20250049791A1, “Synthesis of MEK7 Inhibitors and methods of Use Thereof” (Northwestern University, priority 2023, published 2025)
“Also recorded” adds a separate entry of the source.

Experiments:
MEK3 = target: T1, MEK3 (Homo sapiens, UniProt P46734); test: Additional selectivity assay, MEK3 (FIG. 9); assay type: binding
T1 sequence (P46734 1-347): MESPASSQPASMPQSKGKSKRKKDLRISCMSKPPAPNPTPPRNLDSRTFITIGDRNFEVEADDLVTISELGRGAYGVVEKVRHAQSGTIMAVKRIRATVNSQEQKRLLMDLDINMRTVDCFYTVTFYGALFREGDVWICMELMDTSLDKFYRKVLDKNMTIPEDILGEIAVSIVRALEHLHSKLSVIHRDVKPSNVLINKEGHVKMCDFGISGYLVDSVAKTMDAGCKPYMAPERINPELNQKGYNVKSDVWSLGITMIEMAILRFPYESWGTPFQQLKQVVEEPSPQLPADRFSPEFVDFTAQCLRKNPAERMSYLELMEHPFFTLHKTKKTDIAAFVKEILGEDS

MEK5 = target: T2, MEK5 (Homo sapiens, UniProt Q13163); test: Additional selectivity assay, MEK5 (FIG. 9); assay type: binding
T2 sequence (Q13163 1-448): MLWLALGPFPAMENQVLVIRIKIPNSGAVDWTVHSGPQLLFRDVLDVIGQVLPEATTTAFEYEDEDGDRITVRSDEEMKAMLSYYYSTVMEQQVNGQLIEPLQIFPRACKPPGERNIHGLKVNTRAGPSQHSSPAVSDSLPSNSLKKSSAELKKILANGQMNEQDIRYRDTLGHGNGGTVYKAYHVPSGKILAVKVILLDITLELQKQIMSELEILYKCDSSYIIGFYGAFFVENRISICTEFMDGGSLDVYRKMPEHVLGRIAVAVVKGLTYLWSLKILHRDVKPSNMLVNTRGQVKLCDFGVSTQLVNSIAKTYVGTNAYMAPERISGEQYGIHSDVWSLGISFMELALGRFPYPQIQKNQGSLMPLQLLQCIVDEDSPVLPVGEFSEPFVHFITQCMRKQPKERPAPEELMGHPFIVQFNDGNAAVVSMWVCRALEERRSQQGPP

90 wildtype kinases = test: ScanEDGE 97-kinase selectivity screen (DiscoverX/Eurofins), panel and S-score; assay type: binding
From the text: (§1) The ScanEDGE assay, completed by DiscoverX (Eurofins) is a proprietary active site-directed competition binding assay. Compounds that bind the kinase active site prevent kinase binding to the immobilized ligand, reducing the amount of kinase captured on the solid support. Hits are identified by measuring the amount of kinase captured in experimental vs, control samples by a qPCR method that detects an associated DNA label. According to data provided by Eurofins, a typical hit at 5-10% of control signal in a 1 μM assay as shown above is generally associated with a KD in the range of 100-1,000 nM. Readings with greater than 35% of control signal correspond to exceeding large dissociation constants.
Selectivity score (or S-score) is a quantitative measure of compound selectivity corresponding to the ratio of hits to the number of screened wildtype kinases.

JNK1/2/3 = test: ScanEDGE competition binding, JNK1/2/3; details: ScanEDGE screen
From the text: as §1

[1] = target: T3, MAP2K7 recombinant protein (Homo sapiens, UniProt O14733); test: LC/MS-MS determination of residue selectivity; assay type: binding
T3 construct: purchased Carna Biosciences 07-147-10; host or cells: E. coli
T3 sequence (O14733 1-419): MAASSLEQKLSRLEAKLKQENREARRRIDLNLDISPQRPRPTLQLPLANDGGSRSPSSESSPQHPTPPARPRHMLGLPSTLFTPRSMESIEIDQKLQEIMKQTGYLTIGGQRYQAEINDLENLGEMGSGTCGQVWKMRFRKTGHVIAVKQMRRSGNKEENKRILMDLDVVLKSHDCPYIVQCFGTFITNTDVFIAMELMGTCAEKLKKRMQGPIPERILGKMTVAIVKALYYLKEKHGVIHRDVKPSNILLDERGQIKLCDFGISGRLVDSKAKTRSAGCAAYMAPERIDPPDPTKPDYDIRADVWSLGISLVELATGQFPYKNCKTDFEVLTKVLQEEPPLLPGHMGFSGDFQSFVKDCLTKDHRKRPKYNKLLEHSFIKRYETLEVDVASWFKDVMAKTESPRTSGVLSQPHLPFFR
Experimental: MAP2K7 recombinant protein was diluted, purified, and incubated as described above. After incubation, protein solution was denatured with 8 M urea for 10 minutes at 65° C., reduced with 12.5 mM DTT for 15 minutes at 65° C., and alkylated with 25 mM iodoacetamide in the absence of light for 30 minutes at 37° C. Protein solution was diluted with PBS to 2 M urea and divided into two digestion reactions: one with 2 μg trypsin and 10 μg chymotrypsin for 6 hours at 37° C., the other with 5 μg GluC for 6 hours at 37° C. Digested peptides were acidified with 5% formic acid and desalted using Sep-Pak C18 1 cc Vac Cartridge (Waters). Peptides were analyzed by liquid chromatography tandem mass-spectrometry using an Orbitrap Eclipse Tribrid Mass Spectrometer (Thermo Scientific) coupled to an Vanquish Neo UHPLC System (Thermo Scientific). Peptides were injected onto EASY-Spray HPLC Column (C18, 2 μm particle size, 75 μm inner diameter, 250 mm length) and separated at a flow rate of […] using the following gradient: 5% buffer B (80% acetonitrile with 0.1% formic acid) in buffer A (water with 0.1% formic acid) from 0-15 min, 5-45% buffer B from 15-155 min, 45-100% buffer B from 155-180 min. Raw data was searched in Proteome Discoverer 2.5 (Thermo Scientific).

O=C(CCl)Nc1cccc(Oc2cc(NCc3ccccc3)ncn2)c1 [Compound 25, N-(3-((6-(benzylamino)pyrimidin-4-yl)oxy)phenyl)-2-chloroacetamide]
activity/binding at MEK3 (MEK3): inactive; also recorded: lack of binding
activity/binding at MEK5 (MEK5): inactive; also recorded: lack of binding
Number of Hits, S(1) (90 wildtype kinases; 1000 nM, 90 non-mutant kinases): 0
Number of Hits, S(10) (90 wildtype kinases; 1000 nM, 90 non-mutant kinases): 1
Number of Hits, S(35) (90 wildtype kinases; 1000 nM, 90 non-mutant kinases): 1
Selectivity Score S(10) (90 wildtype kinases; 1000 nM, 90 non-mutant kinases): 0.011
Selectivity Score S(35) (90 wildtype kinases; 1000 nM, 90 non-mutant kinases): 0.011
selectivity score after adding MEK3, MEK5 and MEK6 (1/93) (90 wildtype kinases; 93 kinases): 0.011
activity on JNK1/2/3 (JNK1/2/3): no appreciable activity
cysteine residue covalently engaged, GluC digest [1]: Cys341
cysteine residue covalently engaged, trypsin/chymotrypsin digest [1]: Cys218
